PubChem BioAssay AID1347132
The source made the active and inactive calls.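 Rule for the calls: active = over 75% inhibition of phospholipid synthesis and over 75% inhibition of fatty acid synthesis; inactive = the rest.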

System: animal cells, 32Pi/[3H]acetate lipid labeling, 3 h
Assay: lipid synthesis blockade by radiolabel incorporation – cell-based, 32Pi and [3H]acetate labeling (AID 1347132)

Question: For `CC(C)(C)c1cc(/C=C(\C#N)C(N)=S)cc(C(C)(C)C)c1O`, which outcome is on record?
Answer: inactive

Question: What about the outcome (listed dose 0.1 µM) of the same compound?
Answer: inactive

Question: What about the outcome (listed dose 0.3 µM) of the same compound?
Answer: inactive

Question: What about the outcome (listed dose 1 µM) of the same compound?
Answer: inactive

Question: And the outcome (listed dose 3 µM)?
Answer: inactive

Question: And the outcome (listed dose 10 µM)?
Answer: active
